Experimental data from patent US10952436B2, “Microbiocidal quinoline (thio)carboxamide derivatives” (SYNGENTA PARTICIPATIONS AG, priority 2017, dated 2021).
Read-outs that look alike come from different tables or passages of the source.

What was measured:
[1] = tested on: Botryotinia fuckeliana (Botrytis cinerea); assay: Botryotinia fuckeliana (Botrytis cinerea)/Liquid Culture (Gray Mould); assay type: cell-based; details: read-out: control of Botryotinia fuckeliana
[2] = tested on: Fusarium culmorum; assay: microbe, parasite or virus in culture; assay type: cell-based; details: read-out: control of Fusarium culmorum
[3] = tested on: Glomerella lagenarium (Colletotrichum lagenarium); assay: Glomerella lagenarium (Colletotrichum lagenarium)/Liquid Culture (Anthracnose); assay type: cell-based; details: Colletotrichum orbiculare, read-out: control of Glomerella lagenarium
[4] = tested on: Gaeumannomyces graminis; assay: Gaeumannomyces graminis/Liquid Culture (Take-all of Cereals); assay type: cell-based; details: read-out: control of Gaeumannomyces graminis
[5] = tested on: Monographella nivalis (Microdochium nivale); assay: Monographella nivalis (Microdochium nivale)/Liquid Culture (Foot Rot Cereals); assay type: cell-based; details: read-out: control of Monographella nivalis
[6] = tested on: Magnaporthe grisea (Pyricularia oryzae); assay: microbe, parasite or virus in culture; assay type: cell-based; details: read-out: control of Magnaporthe grisea
[7] = tested on: Fusarium culmorum; assay: whole plant or invertebrate; assay type: in vivo; details: in Triticum aestivum, read-out: control of Fusarium culmorum
[8] = tested on: Sclerotinia sclerotiorum; assay: Sclerotinia sclerotiorum/Liquid Culture (Cottony Rot); details: read-out: control of Sclerotinia sclerotiorum
Method: Mycelia fragments of a newly grown liquid culture of the fungus are directly mixed into nutrient broth (Vogels broth). After placing a (DMSO) solution of test compound into a microtiter plate (96-well format) the nutrient broth containing the fungal material is added. The test plates are incubated at 24° C. and the inhibition of growth is determined photometrically 3-4 days after application.

[9] = tested on: Magnaporthe grisea (Pyricularia oryzae); assay: whole plant or invertebrate; assay type: in vivo; details: foliar, read-out: control of Magnaporthe grisea
[10] = 200 ppm, liquid culture, compared to untreated control, 3-4 days after application
[11] = 200 ppm, liquid culture, compared to untreated control, 4-5 days after application

Compound	inhibition of growth at 200 ppm [1, 10] [%]	inhibition of growth at 200 ppm [2] [%]	inhibition of growth at 200 ppm [3, 10] [%]	inhibition of growth at 200 ppm [4, 11] [%]	inhibition of growth at 200 ppm [5, 11] [%]	inhibition of growth at 200 ppm [6] [%]	melting point [°C]	inhibition of growth at 200 ppm [1] [%]	pest or weed control at 200 ppm [7] [%]	inhibition of growth at 200 ppm [3] [%]	inhibition of growth at 200 ppm [4] [%]	inhibition of growth at 200 ppm [5] [%]	inhibition of growth at 20 ppm [8] [%]	pest or weed control at 200 ppm [9] [%]
C=C(C)CC(C)(Cc1ccccc1)C(=O)Nc1cnc2c(F)cccc2c1C (stereo not drawn) [Compound E-65, 2-benzyl-N-(8-fluoro-4-methyl-3-quinolyl)-2,4-dimethyl-pent-4-enamide]	≥ 80	≥ 80	≥ 80	≥ 80	≥ 80	≥ 80	105 to 109							
C=C(C)CC(C)(Cc1ccccc1)C(=O)Nc1cnc2c(F)cccc2c1 (stereo not drawn) [Compound E-74, 2-benzyl-N-(8-fluoro-3-quinolyl)-2,4-dimethyl-pent-4-enamide]		≥ 80				≥ 80	147 to 149	≥ 80	≥ 80	≥ 80	≥ 80	≥ 80	≥ 80	
CC(C)CC(C)(Cc1ccccc1)C(=O)Nc1cnc2ccccc2c1 (stereo not drawn) [Compound E-85, 2-benzyl-2,4-dimethyl-N-(3-quinolyl)pentanamide]	≥ 80	≥ 80	≥ 80	≥ 80			147 to 148							
CC1(CC(C)(Cc2ccccc2)C(=O)Nc2cnc3c(F)cccc3c2)CC1 (stereo not drawn) [Compound E-70, 2-benzyl-N-(8-fluoro-3-quinolyl)-2-methyl-3-(1-methylcyclopropyl) propanamide]	≥ 80	≥ 80	≥ 80	≥ 80		≥ 80	149 to 151							
O=C(Nc1cnc2c(F)cccc2c1)C(Cc1ccccc1)CC(F)(F)F (stereo not drawn) [Compound E-82, 2-benzyl-4,4,4-trifluoro-N-(8-fluoro-3-quinolyl)butanamide]	≥ 80	≥ 80	≥ 80	≥ 80	≥ 80	≥ 80	161 to 164		≥ 80					
CC(C)CC(C)(Cc1ccccc1)C(=O)Nc1cnc2c(F)cccc2c1 (stereo not drawn) [Compound E-87, 2-benzyl-N-(8-fluoro-3-quinolyl)-2,4-dimethyl-pentanamide]	≥ 80	≥ 80	≥ 80	≥ 80	≥ 80	≥ 80	140 to 142		≥ 80				≥ 80	
CC(F)(F)CC(C)(Cc1ccccc1)C(=O)Nc1cnc2c(F)cccc2c1 (stereo not drawn) [Compound E-68, 2-benzyl-4,4-difluoro-N-(8-fluoro-3-quinolyl)-2-methyl-pentanamide]	≥ 80	≥ 80	≥ 80	≥ 80	≥ 80	≥ 80	156 to 158		≥ 80					
CC(Cc1ccccc1)(CC1CC1)C(=O)Nc1cnc2c(F)cccc2c1 (stereo not drawn) [Compound E-76, 2-benzyl-3-cyclopropyl-N-(8-fluoro-3-quinolyl)-2-methyl-propanamide]	≥ 80	≥ 80	≥ 80	≥ 80	≥ 80	≥ 80	157 to 159							≥ 80
C=C(F)CC(C)(Cc1ccccc1)C(=O)Nc1cnc2c(F)cccc2c1 (stereo not drawn) [Compound E-71, 2-benzyl-4-fluoro-N-(8-fluoro-3-quinolyl)-2-methyl-pent-4-enamide]	≥ 80	≥ 80	≥ 80	≥ 80	≥ 80	≥ 80	132 to 134		≥ 80					
CCCC(C)(Cc1ccccc1)C(=O)Nc1cnc2c(F)cccc2c1 (stereo not drawn) [Compound E-77, 2-benzyl-N-(8-fluoro-3-quinolyl)-2-methyl-pentanamide]	≥ 80	≥ 80	≥ 80	≥ 80	≥ 80	≥ 80			≥ 80					
